Laboratory results as given in ChEMBL document CHEMBL2413030, “Multimerized CHR-derived peptides as HIV-1 fusion inhibitors” (Bioorg Med Chem, 2013).
Square brackets hold non-standard residues; d marks the D form. Nle = CCCC[C@H](N)C(=O)O

What was measured:
[1] = system: Human immunodeficiency virus 1; assay: Antiviral activity against HIV1 NL4-3 assessed as inhibition of viral fusion with human TZM-bl cells after 48 hrs by steady glo luciferase reporter gene assay; type: functional, organism-based; conditions: Human immunodeficiency virus 1, NL4-3, TZM-bl
[2] = Cytotoxicity against human TZM-bl cells by MTS assay; type: cell-based

Substance	IC50 [1]	CC50 [2]
H-W[Nle]EWDRKIEEYTKKIEELIKKSQEQQEKNEKELKREREREG-OH	1.82 nM	> 5000 nM
enfuvirtide	45.2 nM	> 5000 nM
